Converted amounts (≈) assume the structure as drawn. Where two headings read alike, the source gives them in different places.

This assay relates to bacteria. The settings on record: for MIC, Peptide: unmodified parent peptide.
Where [1] appears, read: A. calcoaceticus AC002, agarose dilution.
Setting [2] is: E. cloacae ECL007, agarose dilution.
Setting [3] is: E. faecalis EFS001, agarose dilution.
Where [4] appears, read: E. faecalis EFS008, agarose dilution.
Setting [5] is: K. pneumoniae KP001, agarose dilution.
Setting [6] is: P. aeruginosa PA004, agarose dilution.
[7] abbreviates: S. aureus SA014, agarose dilution.
[8] abbreviates: S. aureus SA093, agarose dilution.
The mark [9] stands for this setting: S. epidermidis SE010, agarose dilution.
[10] abbreviates: S. maltophilia SMA002, agarose dilution.
[11] abbreviates: S. marcescens SMS003, agarose dilution.

Consider `CC[C@H](C)[C@H](NC(=O)[C@H](CC(C)C)NC(=O)[C@H](C)NC(=O)[C@@H]1CCCN1C(=O)[C@H](CC(C)C)NC(=O)CNC(=O)[C@@H](NC(=O)[C@@H](NC(=O)[C@H](CC(C)C)NC(=O)[C@@H](NC(=O)[C@H](CCCCN)NC(=O)[C@H](CCCCN)NC(=O)[C@@H](NC(=O)[C@H](C)NC(=O)[C@@H](NC(=O)[C@@H](NC(=O)[C@H](CC(C)C)NC(=O)[C@H](CCCCN)NC(=O)[C@H](CCCCN)NC(=O)[C@@H](NC(=O)[C@H](Cc1ccccc1)NC(=O)[C@H](CO)NC(=O)[C@H](CCCCN)NC(=O)[C@H](Cc1c[nH]c2ccccc12)NC(=O)[C@@H](N)CCCCN)[C@@H](C)CC)[C@@H](C)O)[C@@H](C)O)C(C)C)C(C)C)[C@@H](C)O)[C@@H](C)O)C(=O)N[C@@H](CO)C(=O)O` [MBI29], for which the “MIC, Peptide” value under setting [1] is 1 µg/mL (≈ 0.348 µM); the “MIC, Peptide” value under setting [2] is over 64 µg/mL; the “MIC, Peptide” value (E. coli EC0005, agarose dilution) is 4 µg/mL (≈ 1.39 µM); the “MIC, Peptide” value under setting [3] turned out to be 0.5 µg/mL (≈ 0.174 µM); the “MIC, Peptide” value under setting [4] turned out to be 0.5 µg/mL (≈ 0.174 µM); the “MIC, Peptide” value under setting [5] is 2 µg/mL (≈ 0.696 µM). The “MIC, Peptide” value by setting is: under setting [6], 16 µg/mL (≈ 5.57 µM); under setting [7], 1 µg/mL (≈ 0.348 µM); under setting [8], 0.5 µg/mL (≈ 0.174 µM); under setting [9], 4 µg/mL (≈ 1.39 µM); under setting [10], 2 µg/mL (≈ 0.696 µM); under setting [11], over 128 µg/mL.

With I L K K F P F W P W R R K [MBI 11A7CN], the MIC (in general, the least concentration at which growth counts as inhibited) runs as follows: under setting [1], 4 µg/mL; under setting [2], over 128 µg/mL; (E. coli ECO005, agarose dilution) 8 µg/mL; under setting [3], 2 µg/mL; (E. faecalis EFS002) 16 µg/mL; under setting [4], 4 µg/mL. In addition, the MIC (E. faecium EFM003) worked out at 2 µg/mL; the MIC under setting [5] worked out at 8 µg/mL; the MIC under setting [6] was over 128 µg/mL; the MIC (S. aureus SA009) is 2 µg/mL; the MIC under setting [7] was 4 µg/mL; the MIC under setting [8] is 1 µg/mL. Further, the MIC under setting [9] is 4 µg/mL, the MIC under setting [10] is 64 µg/mL and the MIC under setting [11] was over 28 µg/mL.

In the case of I L K K F P W F P W R R K [MBI 11A6CN], the MIC reads like this: (A. calcoaceticus AC002) 2 µg/mL; (E. cloacae ECL007) over 128 µg/mL; (E. coli ECO005) 16 µg/mL; (E. faecalis EFS001) 1 µg/mL; (E. faecalis EFS004) 64 µg/mL; (E. faecalis EFS008) 8 µg/mL. Besides, the MIC (E. faecium EFM003) came to 2 µg/mL; the MIC (K. pneumoniae KP001) came out at 32 µg/mL; the MIC (P. aeruginosa PA004) is over 128 µg/mL; the MIC (S. aureus SA014) turned out to be 4 µg/mL; the MIC (S. aureus SA016) is 2 µg/mL.

Turning to I L K K I P I I P I R R K [MBI 11A2CN], the MIC was over 128 µg/mL (A. calcoaceticus AC001); over 128 µg/mL (E. cloacae ECL007); over 128 µg/mL (E. coli ECO003); over 128 µg/mL (E. faecalis EFS002); 16 µg/mL (E. faecium EFM003); over 128 µg/mL (K. pneumoniae KP002). The MIC is over 128 µg/mL (P. aeruginosa PA004), 8 µg/mL (S. aureus SA004), over 128 µg/mL (S. maltophilia SMA001) and over 128 µg/mL (S. marcescens SMS003).

As for I L K K P W W P W R R K [MBI 11G3CN], the MIC runs as follows: (E. cloacae ECL007) over 128 µg/mL; (E. coli ECO003) 64 µg/mL; (E. faecalis EFS002) 64 µg/mL; (E. faecium EFM002) 32 µg/mL; (K. pneumoniae KP001) over 128 µg/mL; (P. aeruginosa PA003) over 128 µg/mL. Also, the MIC reads like this: (S. aureus SA009) 8 µg/mL; (S. maltophilia SMA001) over 128 µg/mL; (S. marcescens SMS004) over 128 µg/mL.

Regarding I L K K W P W P W R R K [MBI 11A4CN], the MIC by setting is: (A. calcoaceticus AC002) 8 µg/mL; (E. cloacae ECL007) over 128 µg/mL; (E. coli ECO003) 32 µg/mL; (E. faecalis EFS002) 64 µg/mL; (E. faecium EFM001) 32 µg/mL; (K. pneumoniae KP001) over 128 µg/mL. Also, the minimal inhibitory concentration (MIC) (P. aeruginosa PA004) was over 128 µg/mL; the MIC (S. aureus SA005) worked out at 2 µg/mL; the MIC (S. epidermidis SE002) was 8 µg/mL; the MIC (S. maltophilia SMA002) was over 128 µg/mL; the MIC (S. marcescens SMS004) was over 128 µg/mL.

For I L K K W P W W A W R R K [MBI 11C4CN], the MIC (A. calcoaceticus AC002) was 4 µg/mL; the MIC (E. cloacae ECL007) was over 128 µg/mL; the minimum inhibitory concentration (MIC) (E. coli ECO005) amounted to 32 µg/mL; the MIC (E. faecalis EFS002) is 32 µg/mL; the MIC (E. faecium EFM003) came out at 2 µg/mL; the MIC (K. pneumoniae KP001) was over 128 µg/mL. For the same compound, the MIC runs as follows: (P. aeruginosa PA005) over 128 µg/mL; (S. aureus SA009) 4 µg/mL; (S. epidermidis SE002) 4 µg/mL; (S. maltophilia SMA002) 64 µg/mL; (S. marcescens SMS004) over 128 µg/mL.

On to I L K K W P W W P R R K [MBI 11G6ACN], for which the minimal inhibitory concentration (MIC) reads like this: (A. calcoaceticus AC002) 4 µg/mL; (E. coli ECO005) 64 µg/mL; (E. faecalis EFS008) over 128 µg/mL; (S. aureus SA014) 64 µg/mL; (S. epidermidis SE010) 32 µg/mL; (S. maltophilia SMA002) over 128 µg/mL.

With I L K K W P W W P W R K [MBI 11B4ACN], the MIC reads like this: (A. calcoaceticus AC002) 4 µg/mL; (E. cloacae ECL007) over 128 µg/mL; (E. coli ECO005) 32 µg/mL; (E. faecalis EFS008) 64 µg/mL; (K. pneumoniae KP001) 32 µg/mL; (P. aeruginosa PA004) over 128 µg/mL. Besides, the MIC is, setting by setting: (S. aureus SA008) 1 µg/mL; (S. epidermidis SE010) 8 µg/mL; (S. maltophilia SMA002) 64 µg/mL; (S. marcescens SMS003) over 128 µg/mL.

“ILKKWPWWPWRRIMILKKAGS [MBI 11D6CN]”: the minimal inhibitory concentration (MIC) is, setting by setting: (A. calcoaceticus AC002) 4 µg/mL; (E. cloacae ECL007) over 32 µg/mL; (E. coli ECO002) 32 µg/mL; (E. faecalis EFS002) 4 µg/mL; (E. faecium EFM003) 1 µg/mL; (K. pneumoniae KP002) over 64 µg/mL. Moreover, the MIC reads like this: (P. aeruginosa PA024) over 64 µg/mL; (S. aureus SA009) 8 µg/mL; (S. epidermidis SE010) 4 µg/mL; (S. maltophilia SMA001) over 64 µg/mL; (S. marcescens SMS004) over 64 µg/mL.

For “I L K K W P W W P W R R I M [MBI 11D13H]”, the MIC is 64 µg/mL (A. calcoaceticus AC001); over 64 µg/mL (E. cloacae ECL007); 32 µg/mL (E. coli ECO002); 16 µg/mL (E. faecalis EFS004); over 64 µg/mL (K. pneumoniae KP002); over 64 µg/mL (P. aeruginosa PA004). In addition, the MIC runs as follows: (S. aureus SA025) 4 µg/mL; (S. maltophilia SMA002) over 64 µg/mL; (S. marcescens SMS004) over 64 µg/mL.

As for “ILKKWPWWPWRRKMILKKAGS [MBI 11D4CN]”, the MIC reads like this: (A. calcoaceticus AC001) over 64 µg/mL; (E. cloacae ECL007) over 64 µg/mL; (E. coli ECO003) 64 µg/mL; (E. faecalis EFS002) 16 µg/mL; (E. faecium EFM002) 1 µg/mL; (K. pneumoniae KP002) over 64 µg/mL. The MIC reads like this: (P. aeruginosa PA004) over 64 µg/mL; (S. aureus SA009) 4 µg/mL; (S. maltophilia SMA001) over 64 µg/mL; (S. marcescens SMS004) over 64 µg/mL.

For the compound “I L K K W P W W P W R R K M [MBI 11D11H]”, the minimal inhibitory concentration (MIC) was over 64 µg/mL (A. calcoaceticus AC001); over 64 µg/mL (E. cloacae ECL007); 32 µg/mL (E. coli ECO002); over 64 µg/mL (K. pneumoniae KP001); over 64 µg/mL (P. aeruginosa PA001); 4 µg/mL (S. aureus SA008). The compound also registered an MIC (S. maltophilia SMA002) of over 64 µg/mL and a minimum inhibitory concentration (MIC) (S. marcescens SMS004) of over 64 µg/mL.

For I L K K W P W W P W R R K [MBI 11ACN], the MIC (A. calcoaceticus AC002) was 2 µg/mL; the MIC (E. cloacae ECL007) is over 128 µg/mL; the minimum inhibitory concentration (MIC) (E. coli ECO005) is 16 µg/mL; the MIC (E. faecalis EFS004) was 8 µg/mL; the minimal inhibitory concentration (MIC) (E. faecalis EFS008) was found to be 64 µg/mL; the minimum inhibitory concentration (MIC) (K. pneumoniae KP001) was found to be 16 µg/mL. The MIC is over 128 µg/mL (P. aeruginosa PA004); 8 µg/mL (S. aureus SA014); 4 µg/mL (S. epidermidis SE010); 64 µg/mL (S. maltophilia SMA002); over 128 µg/mL (S. marcescens SMS003).

Consider I L K K W P W W P W R R K [MBI 11A], for which the MIC reads like this: (A. calcoaceticus AC001) over 64 µg/mL; (E. cloacae ECL007) over 64 µg/mL; (E. coli ECO005) over 64 µg/mL; (E. faecalis EFS004) 32 µg/mL; (K. pneumoniae KP001) 64 µg/mL; (P. aeruginosa PA024) over 64 µg/mL. Moreover, the MIC is 4 µg/mL (S. aureus SA002), over 64 µg/mL (S. maltophilia SMA002) and over 64 µg/mL (S. marcescens SMS003).

With I L K K W P W W P W R R K [MBI 11CNW1], the MIC reads like this: (A. calcoaceticus AC002) 8 µg/mL; (E. cloacae ECL007) 64 µg/mL; (E. coli ECO005) 32 µg/mL; (E. faecalis EFS001) 8 µg/mL; (K. pneumoniae KP001) 32 µg/mL; (P. aeruginosa PA004) 64 µg/mL. In addition, the MIC is 4 µg/mL (S. aureus SA010), 32 µg/mL (S. maltophilia SMA002) and over 128 µg/mL (S. marcescens SMS003).

The values are drawn from patent US6503881B2 (priority 1996, dated 2003).
